Measured values as given in ChEMBL document CHEMBL2321733, “[3a,4]-Dihydropyrazolo[1,5a]pyrimidines: Novel, Potent, and Selective Phosphatidylinositol-3-kinase β Inhibitors” (ACS Med Chem Lett, 2013).
Values after ≈ are worked out from the molar mass of the structure shown.

Experiments:
[1] = biological target: T1, Phosphatidylinositol 4,5-bisphosphate 3-kinase catalytic subunit beta isoform (Homo sapiens, UniProt P42338); assay: Inhibition of PI3Kbeta human in PTEN-null MDA-MB-468 cells assessed as reduction of AKT phosphorylation at Ser 473 in presence of serum; assay type: cell-based
T1 sequence (P42338 whole entry, canonical isoform): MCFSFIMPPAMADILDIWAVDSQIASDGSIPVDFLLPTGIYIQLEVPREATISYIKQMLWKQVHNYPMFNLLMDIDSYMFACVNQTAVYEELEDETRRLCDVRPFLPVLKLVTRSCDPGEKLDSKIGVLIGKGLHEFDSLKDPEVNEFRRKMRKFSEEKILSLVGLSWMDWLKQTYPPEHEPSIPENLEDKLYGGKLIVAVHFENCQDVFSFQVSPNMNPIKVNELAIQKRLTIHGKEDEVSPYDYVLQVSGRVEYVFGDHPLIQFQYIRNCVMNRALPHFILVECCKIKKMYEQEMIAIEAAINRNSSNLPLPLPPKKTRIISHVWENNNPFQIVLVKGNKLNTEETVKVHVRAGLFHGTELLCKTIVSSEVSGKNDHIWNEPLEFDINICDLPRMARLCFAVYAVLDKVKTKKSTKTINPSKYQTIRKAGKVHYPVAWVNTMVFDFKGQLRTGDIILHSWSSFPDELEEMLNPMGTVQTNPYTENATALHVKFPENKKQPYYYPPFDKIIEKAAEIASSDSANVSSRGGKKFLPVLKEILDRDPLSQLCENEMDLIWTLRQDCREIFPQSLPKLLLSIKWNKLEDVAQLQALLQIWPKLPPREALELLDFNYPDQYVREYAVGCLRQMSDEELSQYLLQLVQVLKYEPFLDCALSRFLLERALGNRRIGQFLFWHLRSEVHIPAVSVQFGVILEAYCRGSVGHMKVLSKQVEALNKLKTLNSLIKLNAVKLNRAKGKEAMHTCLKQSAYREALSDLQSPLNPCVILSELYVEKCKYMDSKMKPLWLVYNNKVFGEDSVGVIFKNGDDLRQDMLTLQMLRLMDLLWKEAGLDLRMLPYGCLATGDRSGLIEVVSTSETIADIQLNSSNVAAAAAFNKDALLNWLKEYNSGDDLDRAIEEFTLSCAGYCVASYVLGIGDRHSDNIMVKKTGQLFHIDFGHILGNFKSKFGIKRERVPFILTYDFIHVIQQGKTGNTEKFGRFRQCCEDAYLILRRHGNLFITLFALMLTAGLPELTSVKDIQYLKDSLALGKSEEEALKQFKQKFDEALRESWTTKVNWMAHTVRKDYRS

[2] = Plasma protein binding in rat serum by equilibrium dialysis; assay type: ADME, cell-free; conditions: read-out: PPB (converted)
[3] = Plasma protein binding in human serum by equilibrium dialysis; assay type: ADME, cell-free; conditions: read-out: PPB (converted)
[4] = biological target: T1, Phosphatidylinositol 4,5-bisphosphate 3-kinase catalytic subunit beta isoform; assay: Inhibition of PI3Kbeta (unknown origin)
[5] = Plasma protein binding in mouse serum by equilibrium dialysis; assay type: ADME, cell-free; conditions: read-out: PPB (converted)
[6] = biological target: T1, Phosphatidylinositol 4,5-bisphosphate 3-kinase catalytic subunit beta isoform; assay: Inhibition of PI3Kbeta human in PTEN-null MDA-MB-468 cells assessed as reduction of AKT phosphorylation at Ser 473 in absence of serum; assay type: cell-based
[7] = biological target: T2, Phosphatidylinositol 4,5-bisphosphate 3-kinase catalytic subunit delta isoform (Homo sapiens, UniProt O00329); assay: Inhibition of PI3Kdelta (unknown origin)
T2 sequence (O00329 whole entry): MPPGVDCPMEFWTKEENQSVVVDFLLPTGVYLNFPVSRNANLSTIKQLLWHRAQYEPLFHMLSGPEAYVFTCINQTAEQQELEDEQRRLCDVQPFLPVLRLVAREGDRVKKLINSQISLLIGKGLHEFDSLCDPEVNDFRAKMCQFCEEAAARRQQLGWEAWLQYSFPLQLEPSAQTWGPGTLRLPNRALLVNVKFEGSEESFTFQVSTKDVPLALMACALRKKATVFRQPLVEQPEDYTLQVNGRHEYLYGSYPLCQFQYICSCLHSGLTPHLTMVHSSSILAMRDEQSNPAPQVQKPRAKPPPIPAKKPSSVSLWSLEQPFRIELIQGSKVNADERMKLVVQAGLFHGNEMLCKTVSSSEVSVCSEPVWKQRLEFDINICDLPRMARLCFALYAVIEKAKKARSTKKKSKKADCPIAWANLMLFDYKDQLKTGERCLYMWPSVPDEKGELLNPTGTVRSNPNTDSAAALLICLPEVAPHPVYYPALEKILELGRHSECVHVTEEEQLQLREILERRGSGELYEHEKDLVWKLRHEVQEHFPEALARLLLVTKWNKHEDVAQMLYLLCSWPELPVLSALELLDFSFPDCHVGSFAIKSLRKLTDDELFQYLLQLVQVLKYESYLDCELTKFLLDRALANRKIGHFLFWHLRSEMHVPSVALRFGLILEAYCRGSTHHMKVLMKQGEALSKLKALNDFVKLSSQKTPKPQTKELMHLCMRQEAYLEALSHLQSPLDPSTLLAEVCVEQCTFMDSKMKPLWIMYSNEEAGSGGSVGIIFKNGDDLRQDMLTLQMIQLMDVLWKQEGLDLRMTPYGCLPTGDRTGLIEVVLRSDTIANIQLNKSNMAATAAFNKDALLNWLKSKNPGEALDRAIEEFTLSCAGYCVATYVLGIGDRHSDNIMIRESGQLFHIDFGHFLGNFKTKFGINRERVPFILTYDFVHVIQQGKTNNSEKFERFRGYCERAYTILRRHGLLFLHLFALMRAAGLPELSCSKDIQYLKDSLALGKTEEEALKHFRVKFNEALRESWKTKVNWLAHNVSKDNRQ

[8] = biological target: Phosphatidylinositol 4,5-bisphosphate 3-kinase catalytic subunit gamma isoform (Homo sapiens, UniProt P48736); assay: Inhibition of PI3Kgamma (unknown origin)
Chain of Phosphatidylinositol 4,5-bisphosphate 3-kinase catalytic subunit gamma isoform (P48736 whole entry, canonical isoform): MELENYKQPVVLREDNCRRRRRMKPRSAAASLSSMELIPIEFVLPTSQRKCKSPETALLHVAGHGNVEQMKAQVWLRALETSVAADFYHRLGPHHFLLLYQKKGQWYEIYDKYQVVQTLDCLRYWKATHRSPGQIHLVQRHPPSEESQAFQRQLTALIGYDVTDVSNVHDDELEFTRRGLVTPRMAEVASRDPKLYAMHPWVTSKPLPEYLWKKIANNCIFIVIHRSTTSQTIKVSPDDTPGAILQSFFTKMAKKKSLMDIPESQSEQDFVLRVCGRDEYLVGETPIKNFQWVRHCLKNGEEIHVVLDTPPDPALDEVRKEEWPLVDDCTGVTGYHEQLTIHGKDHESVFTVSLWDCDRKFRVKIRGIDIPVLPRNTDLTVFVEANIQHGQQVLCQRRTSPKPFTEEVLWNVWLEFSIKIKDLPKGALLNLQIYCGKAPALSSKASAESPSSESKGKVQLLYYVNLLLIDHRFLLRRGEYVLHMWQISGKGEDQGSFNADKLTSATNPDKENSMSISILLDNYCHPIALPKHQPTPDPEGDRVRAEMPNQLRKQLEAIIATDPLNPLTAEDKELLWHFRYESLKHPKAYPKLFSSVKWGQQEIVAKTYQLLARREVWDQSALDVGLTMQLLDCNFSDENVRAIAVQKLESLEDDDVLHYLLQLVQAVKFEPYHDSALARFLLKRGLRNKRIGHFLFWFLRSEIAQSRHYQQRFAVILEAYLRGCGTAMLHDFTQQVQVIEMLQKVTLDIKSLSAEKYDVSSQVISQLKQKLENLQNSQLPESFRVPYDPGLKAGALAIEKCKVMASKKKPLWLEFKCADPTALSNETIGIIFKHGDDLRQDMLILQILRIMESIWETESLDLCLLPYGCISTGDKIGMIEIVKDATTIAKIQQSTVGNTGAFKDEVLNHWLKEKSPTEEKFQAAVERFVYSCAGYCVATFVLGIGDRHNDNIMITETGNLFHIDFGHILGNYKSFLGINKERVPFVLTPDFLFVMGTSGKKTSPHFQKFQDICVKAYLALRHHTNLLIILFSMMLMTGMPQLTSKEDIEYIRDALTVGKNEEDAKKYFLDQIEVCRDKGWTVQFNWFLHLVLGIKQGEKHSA

[9] = biological target: Phosphatidylinositol 4,5-bisphosphate 3-kinase catalytic subunit alpha isoform (Homo sapiens, UniProt P42336); assay: Inhibition of PI3Kalpha (unknown origin)
Chain of Phosphatidylinositol 4,5-bisphosphate 3-kinase catalytic subunit alpha isoform (P42336 whole entry, canonical isoform): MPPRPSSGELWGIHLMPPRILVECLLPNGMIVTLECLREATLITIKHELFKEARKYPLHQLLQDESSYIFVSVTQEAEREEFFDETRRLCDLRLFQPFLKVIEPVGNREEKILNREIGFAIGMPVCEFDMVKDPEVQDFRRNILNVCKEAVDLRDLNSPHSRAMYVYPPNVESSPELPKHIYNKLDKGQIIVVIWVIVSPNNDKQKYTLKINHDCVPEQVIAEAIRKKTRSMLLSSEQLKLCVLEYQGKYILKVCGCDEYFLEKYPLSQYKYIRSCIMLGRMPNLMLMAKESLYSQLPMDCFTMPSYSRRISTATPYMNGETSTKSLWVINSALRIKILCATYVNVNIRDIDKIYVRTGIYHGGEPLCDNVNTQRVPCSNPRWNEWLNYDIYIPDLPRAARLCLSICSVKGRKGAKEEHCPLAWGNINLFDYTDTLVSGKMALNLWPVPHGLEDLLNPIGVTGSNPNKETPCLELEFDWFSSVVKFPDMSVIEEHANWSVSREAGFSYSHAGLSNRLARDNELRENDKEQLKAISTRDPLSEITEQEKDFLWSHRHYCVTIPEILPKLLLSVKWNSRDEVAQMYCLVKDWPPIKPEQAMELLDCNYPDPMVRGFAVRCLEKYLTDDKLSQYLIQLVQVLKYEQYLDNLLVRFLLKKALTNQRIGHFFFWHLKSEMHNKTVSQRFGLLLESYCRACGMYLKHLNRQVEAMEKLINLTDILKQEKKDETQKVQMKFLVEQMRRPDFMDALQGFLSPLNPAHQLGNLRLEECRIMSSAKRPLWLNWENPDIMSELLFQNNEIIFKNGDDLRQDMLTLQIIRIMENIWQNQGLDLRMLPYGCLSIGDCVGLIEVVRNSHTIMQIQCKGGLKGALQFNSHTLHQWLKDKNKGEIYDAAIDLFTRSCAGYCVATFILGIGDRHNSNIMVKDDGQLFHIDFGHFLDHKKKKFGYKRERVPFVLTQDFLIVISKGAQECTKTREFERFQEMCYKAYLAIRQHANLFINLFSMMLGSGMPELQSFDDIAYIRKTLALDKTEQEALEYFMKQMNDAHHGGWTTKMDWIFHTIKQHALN

[10] = Aqueous solubility of the compound; assay type: physicochemical
[11] = Permeability of the compound across MDCK cells; assay type: ADME, cell-based, Canis lupus familiaris; conditions: dog, read-out: permeability
[12] = Clearance in rat; assay type: ADME, organism-based; conditions: in vivo
[13] = Clearance in mouse; assay type: ADME, organism-based; conditions: in vivo
Mus musculus = assay: Dose normalized AUC in po dosed mouse; assay type: ADME, organism-based; conditions: in vivo
[14] = Clearance in monkey; assay type: ADME, organism-based, Macaca mulatta; conditions: rhesus monkey, in vivo
[15] = biological target: T1, Phosphatidylinositol 4,5-bisphosphate 3-kinase catalytic subunit beta isoform; assay: Inhibition of PI3Kbeta human in PTEN wild type HCC1954 cells assessed as reduction of AKT phosphorylation at Ser 473; assay type: cell-based
[16] = Oral bioavailability mouse; assay type: ADME, organism-based; conditions: in vivo

| SMILES | EC50 [1] | IC50 [4] | IC50 [7] | IC50 [8] | IC50 [9] | EC50 [15] | other results |
| --- | --- | --- | --- | --- | --- | --- | --- |
| Cc1c(Cn2c(C)nc(=O)c3sc(N4CCOCC4)nc32)cccc1C(F)(F)F | 15.8 nM | 0.631 nM | – | – | – | – | fraction unbound [2]: 0.254; fraction unbound [3]: 0.137; fraction unbound [5]: 0.118; EC50 [6]: 6.31 nM |
| CNc1cc(N2CCOCC2)nc2c(Cc3cccc(C(F)(F)F)c3C)c(C)nn12 | – | > 3160 nM | > 631 nM | > 6310 nM | > 1580 nM | – | – |
| Cc1c(Cc2cnn3c(O)cc(N4CCOCC4)nc23)cccc1C(F)(F)F | 1000 nM | 5.01 nM | 20 nM | 501 nM | 316 nM | > 31.6 µM | EC50 [6]: 63.1 nM |
| Cc1c(Cc2cnn3c(O)cc(-c4ccncc4)nc23)cccc1C(F)(F)F | 3160 nM | 2.51 nM | 100 nM | 316 nM | 501 nM | > 31.6 µM | EC50 [6]: 25.1 nM |
| COc1cc(N2CCOCC2)nc2c(Cc3cccc(C(F)(F)F)c3C)cnn12 | – | 1000 nM | > 631 nM | > 5010 nM | > 5010 nM | – | – |
| Cc1c(Cc2cnn3c(Cl)cc(N4CCOCC4)nc23)cccc1C(F)(F)F | – | 316 nM | > 631 nM | > 5010 nM | > 5010 nM | – | – |
| Cc1nn2c(C(=O)O)cc(N3CCOCC3)nc2c1Cc1cccc(C(F)(F)F)c1C | 1000 nM | 5.01 nM | 39.8 nM | > 6310 nM | 1580 nM | > 31.6 µM | – |
| Cc1nn2c(C(N)=O)cc(N3CCOCC3)nc2c1Cc1cccc(C(F)(F)F)c1C | > 31600 nM | 25.1 nM | > 631 nM | > 6310 nM | > 6310 nM | > 31.6 µM | – |
| Cc1nn2c(C#N)cc(N3CCOCC3)nc2c1Cc1cccc(C(F)(F)F)c1C | – | > 1260 nM | > 251 nM | > 3160 nM | > 1000 nM | – | – |
| Cc1nn2c(N)cc(N3CCOCC3)nc2c1Cc1cccc(C(F)(F)F)c1C | 1000 nM | 39.8 nM | 158 nM | > 1480 nM | > 2000 nM | > 31.6 µM | – |
| CC(=O)Nc1cc(N2CCOCC2)nc2c(Cc3cccc(C(F)(F)F)c3C)c(C)nn12 | – | > 1260 nM | > 631 nM | > 5010 nM | > 2000 nM | – | – |
| Cc1nn2c(NC(N)=O)cc(N3CCOCC3)nc2c1Cc1cccc(C(F)(F)F)c1C | > 31600 nM | 20 nM | > 631 nM | > 6310 nM | > 6310 nM | > 31.6 µM | – |
| Cc1c(Cc2c(=O)[nH]n3c(=O)cc(C4CCOCC4)[nH]c23)cccc1C(F)(F)F | – | 63.1 nM | > 631 nM | > 5010 nM | > 2000 nM | – | – |

Second part, led by results:

| EC50 [1] | IC50 [4] | IC50 [7] | IC50 [8] | IC50 [9] | EC50 [15] | SMILES | other results |
| --- | --- | --- | --- | --- | --- | --- | --- |
| 1580 nM | 0.398 nM | 25.1 nM | 316 nM | 316 nM | > 15.8 µM | Cc1nn2c(O)cc(N3CCOCC3)nc2c1Cc1cccc(C(F)(F)F)c1C | solubility [10]: 134 µM (≈ 54.5 µg/mL); Papp [11]: 75.3 ×10⁻⁶ cm/s; clearance [12]: 6.5 mL/min/kg; clearance [13]: 3.7 mL/min/kg; AUC/dose (Mus musculus): 2321 ng·h/mL/mg/kg; fraction unbound [2]: ≤ 0.001; fraction unbound [3]: ≤ 0.001; clearance [14]: 0.33 mL/min/kg; fraction unbound [5]: ≤ 0.001; bioavailability [16]: 51%; EC50 [6]: 31.6 nM |
| 1000 nM | 1 nM | 25.1 nM | 631 nM | 316 nM | > 31.6 µM | Cc1nn2c(O)cc(N3CCOCC3)nc2c1Cc1cccc2ccccc12 | – |
| 10000 nM | 3.98 nM | 126 nM | 2510 nM | > 1580 nM | > 31.6 µM | Cc1nn2c(O)cc(C3CCOCC3)nc2c1Cc1cccc(C(F)(F)F)c1C | – |
| – | 316 nM | 158 nM | 3160 nM | 251 nM | – | Cc1nn2c(O)cc(N3CCOCC3=O)nc2c1Cc1cccc(C(F)(F)F)c1C | – |
| – | 2.51 nM | 15.8 nM | 398 nM | 200 nM | – | Cc1nn2c(O)cc(N3CCOC(C)C3)nc2c1Cc1cccc(C(F)(F)F)c1C (centres undefined) | – |
| 20000 nM | 0.631 nM | 20 nM | 398 nM | 158 nM | > 31.6 µM | CCc1nn2c(O)cc(-c3ccncc3)nc2c1Cc1cccc(Cl)c1Cl | – |
| – | 12.6 nM | > 398 nM | > 7940 nM | > 1580 nM | – | CCc1nn2c(O)cc(C3CCOCC3)nc2c1Cc1cccc(Cl)c1Cl | – |
| 5010 nM | 0.398 nM | 6.31 nM | 251 nM | 200 nM | > 31.6 µM | Oc1cc(N2CCOCC2)nc2c(Cc3cccc(Cl)c3Cl)c(C(F)(F)F)nn12 | – |
| – | 2.51 nM | 79.4 nM | 398 nM | 631 nM | – | Oc1cc(-c2ccncc2)nc2c(Cc3cccc(Cl)c3Cl)c(C(F)(F)F)nn12 | – |
| – | 6.31 nM | 100 nM | > 6310 nM | 2510 nM | – | Oc1cc(C2CCOCC2)nc2c(Cc3cccc(Cl)c3Cl)c(C(F)(F)F)nn12 | – |
| 12600 nM | 1.26 nM | 25.1 nM | 501 nM | 158 nM | > 31.6 µM | COc1nn2c(O)cc(-c3ccncc3)nc2c1Cc1cccc(Cl)c1Cl | EC50 [6]: 158 nM |
| 2000 nM | 7.94 nM | 631 nM | > 3980 nM | 1580 nM | > 31.6 µM | Nc1nn2c(O)cc(C3CCOCC3)nc2c1Cc1cccc(Cl)c1Cl | – |
| – | 794 nM | > 501 nM | 2000 nM | > 1580 nM | – | Cc1nn2ccc(C3CCOCC3)nc2c1Cc1cccc(C(F)(F)F)c1C | – |
| – | 39.8 nM | 251 nM | > 6310 nM | > 1580 nM | – | Cc1nn2c(NO)cc(C3CCOCC3)nc2c1Cc1cccc(C(F)(F)F)c1C | – |
| – | 1260 nM | > 631 nM | 5010 nM | > 1580 nM | – | Cc1nn2c(NCCO)cc(C3CCOCC3)nc2c1Cc1cccc(C(F)(F)F)c1C | – |
